ChEMBL document CHEMBL1159101, “Structural diversity of nucleoside phosphonic acids as a key factor in the discovery of potent inhibitors of rat T-cell lymphoma thymidine phosphorylase” (Bioorg Med Chem Lett, 2010)

How the values were obtained:
[1] = biological target: T1, Thymidine phosphorylase (Rattus norvegicus) (UniProt Q5FVR2); assay: Inhibition of thymidine phosphorylase in T cell lymphomas of Sprague-Dawley rat assessed as residual activity at 10 uM in presence of 100 uM thymidine and 200 uM phosphate
T1 sequence (whole entry): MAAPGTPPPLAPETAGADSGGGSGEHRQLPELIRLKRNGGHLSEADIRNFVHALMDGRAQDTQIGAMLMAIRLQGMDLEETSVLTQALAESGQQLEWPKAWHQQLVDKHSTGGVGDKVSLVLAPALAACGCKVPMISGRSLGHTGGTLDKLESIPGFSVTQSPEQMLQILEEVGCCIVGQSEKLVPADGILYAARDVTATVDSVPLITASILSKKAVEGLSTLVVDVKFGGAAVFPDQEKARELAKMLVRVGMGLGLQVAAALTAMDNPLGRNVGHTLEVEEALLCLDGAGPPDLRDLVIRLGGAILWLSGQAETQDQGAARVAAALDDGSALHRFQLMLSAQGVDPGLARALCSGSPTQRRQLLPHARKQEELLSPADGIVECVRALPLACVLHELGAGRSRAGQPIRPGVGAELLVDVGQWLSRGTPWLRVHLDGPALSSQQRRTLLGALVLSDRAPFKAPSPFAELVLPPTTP

[2] = biological target: T2, Thymidine phosphorylase (Rattus norvegicus, UniProt Q5FVR2); assay: Inhibition of thymidine phosphorylase in T cell lymphomas of Sprague-Dawley rat in presence of 100 uM thymidine and 200 uM phosphate; format: cell-based
T2 sequence (Q5FVR2 whole entry): T1 sequence (whole entry)

Activity [1] [%] | IC50 [2] [nM] | SMILES
4 |  | Cc1cn([C@H]2C[C@H]3O[C@](c4ccccc4)(P(=O)(O)O)OC[C@H]3O2)c(=O)[nH]c1=O
0 | 11 | Cc1cn([C@@H]2CN(C(=O)P(=O)(O)O)C[C@@H]2O)c(=O)[nH]c1=O
20 |  | Cc1cn([C@H]2C[C@H]3O[C@](CBr)(P(=O)(O)O)OC[C@H]3O2)c(=O)[nH]c1=O
9 |  | Cc1cn(CCOC(c2ccccc2)P(=O)(O)O)c(=O)[nH]c1=O (stereo not given)
1 | 750 | Cc1cn(CC(OCP(=O)(O)O)Oc2ccccc2)c(=O)[nH]c1=O (stereo not given)
9 | 190 | Cc1cn(C2CCN(C(=S)P(=O)(O)O)C2)c(=O)[nH]c1=O (racemic)
17 |  | O=c1ccn([C@H]2C[C@@H](CO)N(CP(=O)(O)O)C2)c(=O)[nH]1
29 |  | Cc1cn(C2CCN(CP(=O)(O)O)C2)c(=O)[nH]c1=O (racemic)
4 | 220 | Cc1cn([C@@H]2CN(C(=O)P(=O)(O)O)C[C@H]2O)c(=O)[nH]c1=O
21 |  | Cc1cn(CCOC2(P(=O)(O)O)CCCCC2)c(=O)[nH]c1=O
26 |  | Cc1cn([C@H]2C[C@H]3O[C@@](CBr)(P(=O)(O)O)OC[C@H]3O2)c(=O)[nH]c1=O
0 | 15 | Cc1cn([C@@H]2CN(C(=S)P(=O)(O)O)C[C@@H]2O)c(=O)[nH]c1=O
1 | 45 | Cc1cn([C@@H]2CN(CP(=O)(O)O)C[C@@H]2O)c(=O)[nH]c1=O
47 |  | Cc1cn([C@H]2C[C@H]3O[C@@](c4ccccc4)(P(=O)(O)O)OC[C@H]3O2)c(=O)[nH]c1=O
59 |  | Cc1cn(C2CCN(C(=O)CP(=O)(O)O)C2)c(=O)[nH]c1=O (racemic)
10 | 300 | C=CCOC(Cn1cc(C)c(=O)[nH]c1=O)OCP(=O)(O)O (stereo not given)
0 | 250 | Cc1cn([C@H]2C[C@H](CO)N(CP(=O)(O)O)C2)c(=O)[nH]c1=O
14 |  | Cc1cn(CCOC2(P(=O)(O)O)CCCC2)c(=O)[nH]c1=O
3 | 350 | Cc1cn(C2CCN(C(=O)P(=O)(O)O)C2)c(=O)[nH]c1=O (racemic)
2 | 45 | Cc1cn([C@H]2C[C@H](CO)N(C(=O)P(=O)(O)O)C2)c(=O)[nH]c1=O
